Key:
Glut1 = molecular target: T1, Glut1 (Homo sapiens, UniProt P11166); assay: Bidirectional transport assay in the human in vitro BBB model, Glut1 substrate; type: in vitro ADME; conditions: 2-NBDG 100 μg/ml
T1 construct: endogenous in cells; host or cells: HBMEC/ci18 co-cultured with HBPC/ci37 and HASTR/ci35 (transwell)
T1 sequence (P11166 1-492): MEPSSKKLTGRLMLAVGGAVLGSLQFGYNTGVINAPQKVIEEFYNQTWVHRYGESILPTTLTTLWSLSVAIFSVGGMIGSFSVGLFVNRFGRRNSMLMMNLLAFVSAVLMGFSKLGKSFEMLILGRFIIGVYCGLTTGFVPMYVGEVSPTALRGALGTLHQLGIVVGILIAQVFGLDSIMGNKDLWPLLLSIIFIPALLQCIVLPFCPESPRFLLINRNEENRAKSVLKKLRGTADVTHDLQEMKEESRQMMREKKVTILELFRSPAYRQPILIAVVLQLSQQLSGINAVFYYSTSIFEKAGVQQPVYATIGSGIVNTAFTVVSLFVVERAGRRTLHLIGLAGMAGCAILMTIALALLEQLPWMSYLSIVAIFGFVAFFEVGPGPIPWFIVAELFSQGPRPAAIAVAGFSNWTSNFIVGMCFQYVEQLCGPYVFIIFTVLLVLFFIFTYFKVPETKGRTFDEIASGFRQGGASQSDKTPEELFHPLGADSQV
Experimental: (§1) In vitro human BBB models were developed by combining three immortalized cell lines). Briefly, HBPC/ci37 cells were seeded on the bottom side of the collagen IV- and Fibronectin-coated polycarbonate membrane of a transwell insert (Millicell cell culture insert 24-well hanging inserts, 0.4 μm […]; Merck, Darmstadt, Germany) at a density of 1.0 × 10^4 cells/insert. The cells were then cultured for 1 day to allow them to attach firmly. HASTR/ci35 cells were seeded (5.0 × 10^4 cells/well) on collagen I-coated 24-well plates (Greiner Bio-one, Frickenhausen, Germany) and maintained in astrocyte culture medium. HBPC/ci37 cells were induced to differentiate by replacing the pericyte medium with pericyte differentiation medium, which was consisted of FBS- and blasticidin S-free pericyte medium; HASTR/ci35 cells were induced to differentiate by replacing the astrocyte culture medium with astrocyte differentiation medium, which was consisted of FBS- and blasticidin S-free astrocyte growth medium supplemented with 1 mM adenosine 3′,5′-cyclic monophosphate sodium salt monohydrate. After the differentiation media were added, both cell lines were cultured at 37 °C for 24 h. To start a coculture, HBMEC/ci18 cells were seeded on the inner side of the HBPC/ci37 cell culture insert at a density of 1.0 × 10^5 cells. […]

[1] = Permeability assay with permeable and nonpermeable compounds in the human in vitro BBB model; conditions: human
Experimental: as §1

[2] = system: human in vitro BBB model (HBMEC/ci18, HBPC/ci37, HASTR/ci35); assay: as above
Experimental: as §1

O=[N+]([O-])c1ccc(N[C@H]2C(O)O[C@H](CO)[C@@H](O)[C@@H]2O)c2nonc12 (stereo partly shown) [2-NBDG]
Efflux Ratio Mean (Glut1; mean of 4 independent experiments): 1.1 | Efflux Ratio (Pe (B to A)/Pe (A to B)) (Glut1; single independent experiment): 1.01

Cn1c(=O)c2c(ncn2C)n(C)c1=O [caffeine]
Papp at 5 μM [1]: 1160 ± 492 ×10⁻⁶ cm/s

Lucifer Yellow
Pe value (permeability coefficient) [2]: 90.2 ± 23.1 × 10^−6 cm/s

Source: paper PMC9988422, “Usefulness of a humanized tricellular static transwell blood–brain barrier model as a microphysiological system for drug development applications. - A case study based on the benchmark evaluations of blood-brain barrier microphysiological system” (Regenerative Therapy, 2023)
